Patent US20260041093A1, “Ionic Derivatives Of Aromatic Carboxylic Acid For Use As Plant Stimulants, Method For Stimulating Plants And Use Of These Derivatives For Manufacturing Compositions For Stimulating Plants” (FUNDACJA UNIWERSYTETU IM. ADAMA MICKIEWICZA W POZNANIU, priority 2022, published 2026)
Like-named read-outs stand apart in the source and are kept apart here.

Key:
lettuce [1] = system: lettuce
Text: The purpose of the study was to determine the effect of foliar spraying with test solutions on lettuce (Lactuca sativa L. ‘Zeralda’) plants. The plants were sprayed 7 and 14 days after transplanting to a permanent site. […] After another 7 days, drought stress was induced (plants in the selected combinations were not watered until symptoms of leaf wilting appeared), followed by proper watering of the plants again. Control plants were watered in turn to a constant weight. After 3 days after re-watering, chlorophyll fluorescence was measured (OJIP test, methodology described, among others, in Kalaji H. M., 2011. Impact of abiotic stress factors on chlorophyll fluorescence in plants of selected barley cultivars Hordeum vulgare L. SGGW Publishing House, Warsaw [https://badanieroslin.pl/wp-content/uploads/2018/11/Oddzialywanie-abiotycznych-czynnikow. . . ..pdf]) and the condition of the plants was assessed.
The measurement was carried out after inducing drought stress, followed by re-watering the plants to a constant weight. […] This parameter is lowered by stresses.

lettuce [2] = settings: 3-chlorosalicylate 100 mg/L double application, benzothiadiazole salt 50 mg/L single application
Description: The purpose of the study was to determine the effect of foliar spraying with test solutions on lettuce plants (Lactuca sativa L. ‘Zeralda’) under abiotic stress conditions—low temperature. After 7 and 14 days after transplanting the plants to a permanent place, spraying of the plants was carried out. […] After another 7 days, low temperature stress was induced—plants were grown in three glass chambers with a day temperature of 22° C. and night temperatures of 4, 12 and 20° C. until harvest.

[3] = Control (watered), double application, 3-chlorosalicylate 100 mg/L, benzothiadiazole salt 50 mg/L
[4] = Control (watered), single application, 50 mg/L
[5] = Drought, double application, 3-chlorosalicylate 100 mg/L, benzothiadiazole salt 50 mg/L
[6] = Drought, single application, 50 mg/L
[7] = double application, 3-chlorosalicylate 100 mg/L, benzothiadiazole salt 50 mg/L

C[N+](C)(C)CCO.O=C([O-])c1cccc2nnsc12
Fv/FM (lettuce [1]; [3]): 0.85 abc
Pi_Abs (PSII functioning index calculated on the basis of energy absorption) (lettuce [1]; [3]): 10.33 ab
TRo/RC (lettuce [1]; [3]): 1.74 b
ABS/RC (lettuce [1]; [4]): 1.45 b
DIo/RC (lettuce [1]; [4]): 0.28 b
ETo/RC (lettuce [1]; [4]): 0.87 ab
F0 (lettuce [1]; [4]): 6762 b
FM (lettuce [1]; [4]): 41874 b
FM/F0 (lettuce [1]; [4]): 6.19 abc
Fv (lettuce [1]; [4]): 35112 b
Fv/F0 (lettuce [1]; [4]): 5.19 abc
Fv/FM (lettuce [1]; [4]): 0.84 abc
Pi_Abs (PSII functioning index calculated on the basis of energy absorption) (lettuce [1]; [4]): 4.47 a
TRo/RC (lettuce [1]; [4]): 1.74 b
ABS/RC (lettuce [1]; [5]): 1.14 a
DIo/RC (lettuce [1]; [5]): 0.20 a
ETo/RC (lettuce [1]; [5]): 0.84 ab
F0 (lettuce [1]; [5]): 4965 a
FM (lettuce [1]; [5]): 34715 a
FM/F0 (lettuce [1]; [5]): 6.99 bc
Fv (lettuce [1]; [5]): 29750 b
Fv/F0 (lettuce [1]; [5]): 5.99 ab
Fv/FM (lettuce [1]; [5]): 0.86 c
Pi_Abs (PSII functioning index calculated on the basis of energy absorption) (lettuce [1]; [5]): 12.61 days
TRo/RC (lettuce [1]; [5]): 1.34 a
ABS/RC (lettuce [1]; [6]): 1.12 a
DIo/RC (lettuce [1]; [6]): 0.24 a
ETo/RC (lettuce [1]; [6]): 0.75 a
F0 (lettuce [1]; [6]): 5675 a
FM (lettuce [1]; [6]): 32147 a
FM/F0 (lettuce [1]; [6]): 5.67 a
Fv (lettuce [1]; [6]): 26472 a
Fv/F0 (lettuce [1]; [6]): 4.67 a
Fv/FM (lettuce [1]; [6]): 0.83 a
Pi_Abs (PSII functioning index calculated on the basis of energy absorption) (lettuce [1]; [6]): 7.47 b
TRo/RC (lettuce [1]; [6]): 1.36 a
% dry matter (leaf), Average (lettuce [1]; [7]): 4.67 b %
% dry matter (leaf), Drought (lettuce [1]; [7]): 3.61 a %
% dry matter (leaf), Watered (lettuce [1]; [7]): 5.73 c %
Head and root weight, Average (lettuce [1]; [7]): 69.4 a g/plant
Head and root weight, Drought (lettuce [1]; [7]): 70.6 ab g/plant
Head and root weight, Watered (lettuce [1]; [7]): 69.2 a g/plant
Head weight, Average (lettuce [1]; [7]): 53.4 a g/plant
Head weight, Drought (lettuce [1]; [7]): 51.6 ab g/plant
Head weight, Watered (lettuce [1]; [7]): 51.6 b g/plant
RWC (relative water content), Watered (lettuce [1]; [7]): 74.3 b %
RWC, Average (lettuce [1]; [7]): 75.0 a %
RWC, Drought (lettuce [1]; [7]): 64.0 a %
% dry matter (leaf), Average (lettuce [1]; single application, 50 mg/L): 3.75 b %
% dry matter (leaf), Drought (lettuce [1]; single application, 50 mg/L): 3.59 b %
% dry matter (leaf), Watered (lettuce [1]; single application, 50 mg/L): 3.51 b %
Head and root weight, Average (lettuce [1]; single application, 50 mg/L): 84.6 b g/plant
Head and root weight, Drought (lettuce [1]; single application, 50 mg/L): 84.4 bc g/plant
Head and root weight, Watered (lettuce [1]; single application, 50 mg/L): 85.2 c g/plant
Head weight, Average (lettuce [1]; single application, 50 mg/L): 65.1 b g/plant
Head weight, Drought (lettuce [1]; single application, 50 mg/L): 62.5 c g/plant
Head weight, Watered (lettuce [1]; single application, 50 mg/L): 65.3 c g/plant
RWC (relative water content), Watered (lettuce [1]; single application, 50 mg/L): 77.1 b %
RWC, Average (lettuce [1]; single application, 50 mg/L): 74.5 a %
RWC, Drought (lettuce [1]; single application, 50 mg/L): 71.5 ab %
Head weight, 4° C. (lettuce [2]; night temperature 4° C.): 47.6 b g/plant
Head weight, 12° C. (lettuce [2]; night temperature 12° C.): 54.9 b c g/plant
Head weight, 20° C. (lettuce [2]; night temperature 20° C.): 65.1 b g/plant
